In publication PMC5051080, “Safety, pharmacokinetics, and antitumor properties of anlotinib, an oral multi-target tyrosine kinase inhibitor, in patients with advanced refractory solid tumors” (Journal of Hematology & Oncology, 2016):
Read-outs that look alike come from different tables or passages of the source.

What was measured:
[1] = test system: human tumor xenograft models (SW-620, SK-OV-3, SMMC-7721, Caki-1, U87MG, Calu-3); settings: colon, ovarian, liver, renal, glioma, non-small cell lung; during dosing period; cited from earlier work
[2] = dogs; cited from earlier work
[3] = test system: patients with advanced refractory solid tumors; experiment: Phase I safety and tolerability (DLT, MTD, adverse events NCI-CTCAE 4.0); type: in vivo; settings: for dose-limiting toxicity: in vivo
Description: Those patients received escalating doses of anlotinib daily for (1) four consecutive weeks (4/0) or (2) 2-week on/1-week off (2/1). […] If two DLTs were observed during the first cycle in a cohort, dose-escalation was halted and dose continued at a lower level until the MTD (the highest dose level for which the incidence of first-cycle DLT was <33 %) was identified. In the absence of two or more DLTs in a cohort, the dose was escalated in a modified Fibonacci scheme. Treatment cycles were repeated until disease progression, unacceptable toxicity, or withdrawal of consent.
Adverse events are graded into 0–5 according to the National Cancer Institute Common Terminology Criteria for Adverse Events (NCI-CTCAE 4.0). During treatment, blood pressure will be monitored every day. Patients with unresolved adverse reactions at the end of the test needed to be treated and followed until the reactions returned to the grade 1 degree or less, or stable.

FGFR1-4 = settings: especially FGFR2; to a greater extent than sorafenib; preclinical results; cited from earlier work
[4] = test system: advanced refractory solid tumors; experiment: Tumor response by RECIST 1.1; type: in vivo, human
Protocol: Efficacies were evaluated according to NCI-proposed Response Evaluation Criteria In Solid Tumors (RECIST 1.1). The tumor will be assessed every two cycles including tumor-related symptoms and physical and imaging examination (CT or MRI) of superficial lesions. Physical and imaging examination of tumor lesions should be done at least four weeks after the first effect evaluation in patients with complete remission (CR), partial remission (PR), and stable disease (SD) to confirm efficacy.

[5] = Multiple-dose pharmacokinetics in cancer patients; type: in vivo, human
Protocol: In single-dose studies, anlotinib were administered orally at dose of 5, 10, 12, or 16 mg anlotinib/person. Serial blood samples were collected in heparinized tubes before and at 0.5, 1, 2, 4, 8, 11, 24, 48, 72, 96, 120, 144, 168, 192, 216, and 240 h (samples of 144–240 h were collected only in 12 or 16 mg/person dose group) after dosing. In the 10 mg/person dose group, urine was sampled before and 0–2, 2–6, 6–11, 11–24, 24–34, 34–48, 48–58, 58–72, 72–96, and 96–120 h after dosing. In multiple-dose studies, there were two ways of multiple-dose administration. Initially, patients in 5 and 10 mg/person/day groups were treated consecutively for 28 days. […] Concentrations of anlotinib were measured by liquid chromatography/mass spectrometry.
The maximum concentration (C max) and the time taken to achieve C max (T max) were obtained directly from the data with no interpolation. The area under concentration-time curve up to the last measured time point (AUC0 − t) was calculated by the trapezoidal rule. The elimination half-life (t 1/2) was calculated using the relationship 0.693/k. […] The renal clearance (CLR) was calculated by dividing the cumulative amount excreted into urine (Cum.A e − U) by plasma AUC0 − t. Accumulation ratio (R ac) was used to indicate the extent of accumulation during multiple doses of anlotinib capsules and calculated using the following equation: Rac=C24hDay15/C24hDay1, […]

[6] = Single-dose pharmacokinetics in cancer patients; type: in vivo, human; settings: for AUC(0-t): read-out: AUC0–120h
Protocol: In single-dose studies, anlotinib were administered orally at dose of 5, 10, 12, or 16 mg anlotinib/person. Serial blood samples were collected in heparinized tubes before and at 0.5, 1, 2, 4, 8, 11, 24, 48, 72, 96, 120, 144, 168, 192, 216, and 240 h (samples of 144–240 h were collected only in 12 or 16 mg/person dose group) after dosing. In the 10 mg/person dose group, urine was sampled before and 0–2, 2–6, 6–11, 11–24, 24–34, 34–48, 48–58, 58–72, 72–96, and 96–120 h after dosing. In multiple-dose studies, there were two ways of multiple-dose administration. Initially, patients in 5 and 10 mg/person/day groups were treated consecutively for 28 days. Blood samples were collected 24 h after dosing on days 1, 2, 4, 7, 10, 13, 15, 16, 18, 21, 24, 28, and 29. Later, the other volunteers were given multiple doses of anlotinib at 10, 12, or 16 mg anlotinib/person/day in the 2/1 schedule for two cycles. Blood samples were collected 24 h after dosing on days 1, 4, 7, 10, 13, 15, 18, 22, 29, and 36. The collected blood samples were centrifuged to prepare plasma fractions; the urine samples were weighed after collection. All samples were stored at −70 °C for subsequent analysis. Concentrations of anlotinib were measured by liquid chromatography/mass spectrometry.
The maximum concentration (C max) and the time taken to achieve C max (T max) were obtained directly from the data with no interpolation. The area under concentration-time curve up to the last measured time point (AUC0 − t) was calculated by the trapezoidal rule. The elimination half-life (t 1/2) was calculated using the relationship 0.693/k. The k was estimated by linear regression analysis of the terminal portion of the log concentration-time data. The renal clearance (CLR) was calculated by dividing the cumulative amount excreted into urine (Cum.A e − U) by plasma AUC0 − t. Accumulation ratio (R ac) was used to indicate the extent of accumulation during multiple doses of anlotinib capsules and calculated using the following equation: Rac=C24hDay15/C24hDay1,
where C 24 h(Day1) and C 24 h(Day15) are plasma concentrations of anlotinib at 24 h after dosing on day 1 and day 15, respectively. Plasma pharmacokinetic (PK) parameters were determined using noncompartmental method with a Kinetica software package (version 5.0; Thermo Scientific, Philadelphia, PA).

[7] = test system: human cytochrome P450 3A4; settings: in vitro; read-out: half maximum inhibitory concentration; cited from earlier work
[8] = test system: human cytochrome P450 2C9; settings: in vitro; read-out: half maximum inhibitory concentration; cited from earlier work
VEGFR2/KDR = test system: VEGFR2/KDR; set-up: method as in details pending publication elsewhere; settings: recombinant enzymes; ref details pending publication elsewhere; cited from earlier work
VEGFR3 = test system: VEGFR3; set-up: method as in details pending publication elsewhere; settings: recombinant enzymes; ref details pending publication elsewhere; cited from earlier work
[9] = tumor-bearing mice; cited from earlier work
[10] = rats, cited from earlier work
[11] = test system: tumor cells carrying mutations in PDGFR α, c-Kit, Met, and EGFR; settings: preclinical background; cited from earlier work
[12] = 12 mg/day 2/1 schedule, 20 assessable patients
[13] = human, plasma, single oral dose 5 mg/person (n = 1)
[14] = human, plasma, single oral dose 10 mg/person (n = 4)
[15] = human, plasma, single oral dose 12 mg/person (n = 11)
[16] = human, plasma, single oral dose 16 mg/person (n = 4)
[17] = human, plasma, single oral dose 5-16 mg/person, range

For COc1cc2c(Oc3ccc4[nH]c(C)cc4c3F)ccnc2cc1OCC1(N)CC1 [anlotinib], which “activity against human tumor xenograft models” value [1] is on record?
The value was “broad activity”.

What about the oral bioavailability [2] of the same molecule?
The oral bioavailability was 47–74%.

What about the dose-limiting toxicity ([3]; human) of the same molecule?
The dose-limiting toxicity was “grade 3 hypertension and grade 3 fatigue”.

And the dose-limiting toxicity ([3]; human, 4 weeks)?
The dose-limiting toxicity was “grade 3 hypertension”.

And the dose-limiting toxicity [3]?
The dose-limiting toxicity was “no DLT”.

And the maximum tolerated dose ([3]; once daily, 2/1 schedule)?
Its maximum tolerated dose is 12 mg.

What about the “inactivation of FGFR1-4” value (FGFR1-4) of the same molecule?
The value was “significantly inactivated”.

What about the “patients with tumor burden shrinkage” value ([4]; 12 mg once daily) of the same molecule?
Its value is “More than 60%”.

What about the “partial response (PR)” value [4, 12] of the same molecule?
The value was 15%.

And the “partial response (PR), patients” value [4, 12]?
Its value is 3.

What about the “patients with tumor burden shrinkage among SD” value [4, 12] of the same molecule?
Its value is 12.

What about the “progressive disease (PD)” value [4, 12] of the same molecule?
The value was 15%.

And the “progressive disease (PD), patients” value [4, 12]?
The value was 3.

What about the “stable disease (SD), patients” value [4, 12] of the same molecule?
The value was 14.

What about the “day at which maximum plasma concentration was reached” value ([5]; 2/1 schedule, 2-week dosing) of the same molecule?
Its value is 14 days.

And the “accumulation ratio R ac (C24h Day15/C24h Day1)” value ([5]; multiple oral doses, mean)?
The value was 12 ± 7.

What about the half-life ([6]; human, plasma, oral, mean over doses, dose-independent) of the same molecule?
Its half-life is 96 ± 17 h.

What about the AUC(0-inf) [6, 13] of the same molecule?
Its AUC(0-inf) is 0.687 µg·h/mL.

And the Cmax [6, 13]?
Its Cmax is 5.8 ng/mL.

And the Tmax [6, 13]?
Its Tmax is 11 h.

What about the half-life [6, 13] of the same molecule?
The half-life was 102 h.

What about the AUC(0-t) [6, 13] of the same molecule?
Its AUC(0-t) is 0.411 µg·h/mL.

What about the AUC(0-inf) [6, 14] of the same molecule?
Its AUC(0-inf) is 0.562 ± 0.328 µg·h/mL.

What about the Cmax [6, 14] of the same molecule?
Its Cmax is 5.8 ± 2.8 ng/mL.

And the Tmax [6, 14]?
Its Tmax is 6 ± 4.4 h.

And the half-life [6, 14]?
Its half-life is 95 ± 22 h.

And the AUC(0-t) [6, 14]?
Its AUC(0-t) is 0.318 ± 0.133 µg·h/mL.

What about the AUC(0-inf) [6, 15] of the same molecule?
The AUC(0-inf) was 1.07 ± 0.263 µg·h/mL.

What about the Cmax [6, 15] of the same molecule?
Its Cmax is 10.5 ± 2.9 ng/mL.

What about the Tmax [6, 15] of the same molecule?
The Tmax was 7.3 ± 3.3 h.

What about the half-life [6, 15] of the same molecule?
Its half-life is 116 ± 47 h.

And the AUC(0-t) [6, 15]?
The AUC(0-t) was 0.617 ± 0.194 µg·h/mL.

And the AUC(0-inf) [6, 16]?
The AUC(0-inf) was 1.58 ± 0.47 µg·h/mL.

What about the Cmax [6, 16] of the same molecule?
Its Cmax is 15.8 ± 3.2 ng/mL.

And the Tmax [6, 16]?
The Tmax was 11 ± 8.9 h.

And the half-life [6, 16]?
The half-life was 98 ± 15 h.

And the AUC(0-t) [6, 16]?
Its AUC(0-t) is 0.894 ± 0.305 µg·h/mL.

And the MRT [6, 17]?
Its MRT is 124 to 167 h.

What about the Tmax [6, 17] of the same molecule?
The Tmax was 4 to 11 h.

What about the half-life [6, 17] of the same molecule?
The half-life was 64 to 136 h.

What about the CL renal ([6]; human, urine and plasma, single oral dose, urine sampled in 10 mg/person group, read-out: renal clearance CLR (converted)) of the same molecule?
Its CL renal is 4 mL/h/kg.

What about the “dose proportionality of AUC0–120h, Conclusion” value ([6]; single oral dose) of the same molecule?
The value was “Inconclusive”.

And the “dose proportionality of AUC0–∞, Conclusion” value ([6]; single oral dose)?
Its value is “Inconclusive”.

What about the “dose proportionality of C max, Conclusion” value ([6]; single oral dose) of the same molecule?
Its value is “Inconclusive”.

What about the “fraction of the dose excreted into urine (f e − U)” value ([6]; single oral dose, urine sampled in 10 mg/person group) of the same molecule?
The value was ~ 0.9%.

What about the IC50 [7] of the same molecule?
The IC50 was 0.11 µM.

What about the IC50 [8] of the same molecule?
The IC50 was 0.25 µM.

What about the “potency relative to sorafenib” value (VEGFR2/KDR) of the same molecule?
The value was about 500 times.

And the “potency relative to sunitinib” value (VEGFR2/KDR)?
Its value is “approximately 20 times”.

And the “potency relative to sorafenib” value (VEGFR3)?
The value was about 500 times.

What about the “potency relative to sunitinib” value (VEGFR3) of the same molecule?
Its value is “approximately 20 times”.

What about the “concentration in tumor tissue relative to plasma” value [9] of the same molecule?
The value was 2.4–2.6 times.

What about the oral bioavailability ([10]; oral) of the same molecule?
The oral bioavailability was 23–45%.

And the “exposure level in lung, kidneys, liver, heart compared with plasma” value [10]?
Its value is “significant higher”.

And the “exposure level in the brain compared with plasma level” value [10]?
The value was “comparable”.

What about the “antitumor activity against tumor cells carrying mutations” value [11] of the same molecule?
The value was “showed antitumor activity”.
